Results taken from patent publication US20250098673A1, “COMPOSITIONS, MEANS AND METHODS FOR A NOVEL INSECT REPELLENT” (priority 2019, published 2025).

How the values were obtained:
[1] = tested on: Whitefly (Bemisia tabaci); experiment: Study 1: pest control experiment in cauliflower compared to Mospilan; format: in vivo
Procedure: Whitefly (Bemisia tabaci), is a major pest, in many crops around the world. These pests are carriers of several virus diseases and are damaging the leaves and fruit with scratches and punch-and-suck activity. Furthermore, in cauliflower, excreting honeydew on the leaves and fruit, causes to mold development, which can disqualify the products for the market.
DHA was sprayed in two doses on cauliflower, for checking the effect on Whiteflies. These treatments were tested vs. a standard treatment (Mospilan) and a control treatment (not spraying): • DHA, 2.5% (aqueous solution) • DHA, 5% (aqueous solution) • Mospilan (Acetamiprid 200 g/L), 500 ml per hectare • Control (water spraying)
The experiment was implemented with 4 replicates for each treatment (randomly spread). Each replicate was 12 m long and 2 m width. Spraying volume was 40 L/Dunam. The solution for spraying was in a volume of 4 L.
Counting and statistics: Counting Whiteflies and Thrips was made on 20 leaves, selected randomly in each replicate. Variance analysis was made by Tukey-Kramer (α=0.05). Counting was performed every 7 days.

Culex quinquefasciatus = experiment: Arm-in-cage mosquito repellency test on human subjects (Protection Time); format: in vivo; conditions: mean of 5 subjects; Sano data obtained at a different time (historical comparison)
Procedure: In an embodiment of this invention, the insect repellent effect of a 20% DHA solution was studied. These studies were carried out at Poseidon Sciences Insect Control Laboratory (Miagao, Iloilo, Philippines), a breeding facility for C. quinquefasciatus, for research and development. The insect repellency of a DHA solution, comprising 20% DHA dissolved in a 30% ethanol aqueous solution, was compared to that of a Placebo solution, comprising 30% ethanol in water, as a negative control solution. As a positive control, the repellency of DHA was also compared to that of a commercial Sano insect repellent, a plant based repellent, using a composition of 20% of citrepel 75 dissolved in water. The placebo and the 20% DHA solution were kept in a refrigerator until the day of use. The samples were removed from the refrigerator and kept at room temperature for 3 hours before the tests were undertaken.
The above-mentioned solutions were then tested on a total of 10 subjects (age 19 to 44 comprising a total of 6 women and 4 men), all in good health. Each subject had signed an Informed Consent Form. This study had been approved by Poseidon Sciences IRB (Institutional Review Board). […]
Following application of the tested solution to the arm of the subject, testing was carried out as follows: a research scientist recorded the time of insertion of the arm into the cage and observed mosquito landing. […]

[2] = cited from earlier work

## O=C(CO)CO [DHA, Dihydroxyacetone]
[1]; adults, significant
  reduction of mature Whitefly compared to control group: ~65%
[1]; young stage, trend
  reduction of young stage Whitefly (trend): ~40%
Culex quinquefasciatus
  Protection Time, Mean: 45 min
[2]; SCCS report 2010
  carcinogenicity: non-carcinogenic
  irritancy: non-irritant
  skin sensitization or photo sensitization: did not cause skin sensitization or photo sensitization effects
[2]; application to skin
  systemic absorption: not systemically absorbed
[2]; concentrations of up to 10%, SCCS report 2010
  safety of DHA sprays applied to skin: safe to use
